Values quoted from earlier work in patent USRE43580E1, “Nasal calcitonin formulations” (Unigene Laboratories, Inc., priority 2000, dated 2012).

How the values were obtained:
[1] = system: respiratory mucosal tissue; settings: exposed in vitro
rhinitis medicamentosa = settings: healthy volunteers, decongestant nasal spray containing the preservative
nasal mucosa = settings: in vivo
[2] = system: mucocilary transport velocity; settings: ex vivo frog palate
[3] = preservative in the nasal formulation

- Morphology of respiratory mucosal tissue [1]: severe morphological alterations
- Rhinitis medicamentosa (rhinitis medicamentosa): aggravate rhintis rhinitis medicamentosa
- Mucocilary transport velocity [2]: significant slowing
Substance: benzalkonium chloride
- Effect on nasal mucosa (nasal mucosa): adverse effect on nasal mucosa
- Absorption of salmon calcitonin [3]: enhance the absorption of salmon calcitonin
